Source: US7709514B2, “Therapeutic molecules and methods-1” (Cortical Pty Ltd, priority 2002, dated 2010)
Where two headings read alike, the source gives them in different places.

Experiments:
[1] = tested on: IL-1-induced COX-2 expression; test: IL-1-induced COX-2 expression in S112 human dermal fibroblasts (MIF-dependent bioassay); type: cell-based
Protocol: The activity of compounds was studied in a bioassay utilising MIF-dependent activation of human dermal fibroblasts. […] IL-1-induced COX-2 expression is therefore a MIF-dependent event. […] Prior to experimentation, cells were seeded at 10^5 cells/ml in RPMI/0.1% BSA for 18 hours. […] After 6 hours, cells were collected and intracellular COX-2 protein determined by permeabilisation flow cytometry. […] Cellular fluorescence was determined using a flow cytometer. At least 5000 events were counted for each reading, each of which was performed in duplicate, and the results expressed in mean fluorescence intensity (MFI) after subtraction of negative control-labelled cell fluorescence. The effect of each compound was determined by subtracting the IL-1+compound-treated cell MFI from the IL-1-treated cell (control) MFI and expressed as % inhibition. In each case the % inhibition of IL-1-induced COX-2 expression is expressed as the mean, or mean±SEM where results are available from multiple experiments.

[2] = tested on: IL-1 induced phosphorylation of ERK; test: IL-1 induced phosphorylation (activation) of ERK, Western blotting; type: cell-based, human; conditions: compound 5 50 μM alone; S112 cells, IL-1 0.1 ng/ml, 30 minutes
Protocol: S112 human dermal fibroblasts cultured in RPMI (serum-free) medium were stimulated with recombinant human IL-1 0.1 ng/ml, as described herein, for 30 minutes, with or without the addition of dexamethasone 10^−9M or benzimidazol-2-one-5-pentanoate (compound 5) (50 μM). The phosphorylation (activation) of ERK was assessed using Western blotting with a mAb specific for the phosphorylated (activated) form of ERK. In brief, cells were disrupted by repeated aspiration through a 21-gauge needle. After incubation on ice for 10 min and microcentrifugation at 3000 rpm for 15 min (4° C.), the supernatants were removed, the protein concentration was determined, and the lysates were stored at −80° C. Equal amounts of cellular proteins were fractionated on 10% SDS-polyacrylamide electrophoresis gels and transferred to polyvinylidene difluoride membranes. Immunoblotting was performed using antibodies directed against phospho-p44/42 (ERK) and total p44142 according to the manufacturer's instructions. The intensity of ERK activation is proportional to the size and optical density (darkness) of the resulting blots. Total ERK blots serve as a loading control, such that changes in phosphorylated ERK represent changes in phosphorylation and not in total ERK protein.

[3] = tested on: murine peritoneal macrophage cytokine production; test: inhibition of peritoneal macrophage cytokine production (ELISA); type: cell-based, mice; conditions: Mus musculus
Protocol: C57BL6/J male mice were injected intraperitoneally with 2 ml of thioglycollate. Five (5) days later peritoneal macrophages were collected by lavaging the peritoneum of anaesthetized mice with 3 ml of cold Hanks buffered saline solution. Cells from several mice were pooled, washed and re-suspended in DMEM supplemented with 5% FCS. Cells were plated in 96 well plastic tissue culture plates at 1×10^5 cells/well. Cells were treated with compound or vehicle for 1 hour in a 5% CO2 incubator at 37° C. Cells were then treated with LPS (10-100 ng/ml) or recombinant human interferon-γ (10 units/ml) and incubated for 24 hours. After 24 hours, 50 μl of supernatant from each well was carefully removed and transferred to ELISA plates. The concentration of interleukin 1 (IL-1) or interleukin 6 (IL-6) was measured by ELISA. The concentration of compound at which LPS- or interferon-γ-induced cytokine release was suppressed by 50% compared to vehicle-only-treated cells (EC50) was calculated using Prism® software. Table 9 lists the EC50 for two compounds tested in this assay.

[4] = tested on: cutaneous delayed-type hypersensitivity reactions; test: cutaneous delayed-type hypersensitivity (DTH) to mBSA; type: in vivo, mice; conditions: 15 mg/kg IP once per 24 hours; vs vehicle, p<0.05
Protocol: As noted above, cutaneous delayed-type hypersensitivity reactions (DTH) are an in vivo test of T cell activation. […] A compound which inhibits the cytokine of biological activity of MIF may be expected to inhibit the development of DTH reactions in vivo. DTH reactions were induced in mice developing antigen-induced arthritis (see below). C57BL6/J male mice, aged 7-10 weeks old, were immunized on day 0 with 200 μg methylated BSA (mBSA) emulsified in 200 μl of Freund's complete adjuvant (FCA) injected subcutaneously into the flank skin. Mice were treated with compound 5, administered by intraperitoneal injection, once per 24 hours at a dose of 15 mg/kg body weight. After seven days, mice received 100 μg mBSA and 100 μl FCA by intradermal injection at the base of the tail. After a further 14 days, arthritis was induced by intra-articular injection of 30 μg mBSA in 10 μl of sterile saline into the left knee, the right knee being injected with sterile saline alone. DTH reactions were induced as follows: these mice were challenged 24 h before the end of the experiment by intradermal injection of 50 μg mBSA in 20 μl saline into one hind footpad. […] Footpad swelling was quantified 24 h later using a micrometer. DTH was recorded as the difference in skin swelling between mBSA and saline-injected footpads, and expressed as change in footpad thickness (Δmm).

Compound `CCCCCOC(=O)c1ccc2[nH]c(=O)[nH]c2c1` [Compound 5] has an inhibition at 1 µM ([1]; Homo sapiens, Fibroblast, compound 1 μM, S112 cells, IL-1 0.1 ng/ml, 6 hours) of 7.7%, an inhibition at 10 µM ([1]; Homo sapiens, Fibroblast, compound 10 μM, S112 cells, IL-1 0.1 ng/ml, 6 hours) of 21.4% and an inhibition at 25 µM ([1]; Homo sapiens, Fibroblast, compound 25 μM, S112 cells, IL-1 0.1 ng/ml, 6 hours) of 34%. For the same compound, the inhibition at 50 µM ([1]; Homo sapiens, Fibroblast, compound 50 μM, S112 cells, IL-1 0.1 ng/ml, 6 hours, read-out: % inhibition of IL-1-induced COX-2 expression) was 48.4%, the inhibition at 100 µM ([1]; Homo sapiens, Fibroblast, compound 100 μM, S112 cells, IL-1 0.1 ng/ml, 6 hours) was 52.2% and the “% Inhibition of IL-1 induced COX-2 expression” value ([1]; Table 2 experiment, Compound 5 50 μM alone) was 45.1%. For the same compound, the “ERK activation by IL-1” value [2] was “not inhibited”, the EC50 ([3]; [LPS] 10 ng/mL, read-out: EC50, IL-1 release) was 0.075 µM and the EC50 ([3]; [LPS] 100 ng/mL, read-out: EC50, IL-6 release) was 17.7 µM. The “cutaneous DTH reactions (change in footpad thickness)” value [4] was “statistically significant reduction”.
